We go through 2 compounds from patent US8501766B2, “Treatment of rheumatoid arthritis with a combination of laquinimod and methotrexate” (Teva Pharmaceutical Industries Ltd., priority 2010, dated 2013).

What all share (type): in vivo, male DBA/1OlaHsd mice
Assay [1] deals with serum anti-type II collagen antibody. Put plainly: Serum anti-type II collagen antibody levels in mouse type II collagen arthritis. The settings on record: vs vehicle controls.
Experimental: Mice were terminated on day 34. […] Evaluation of serum anti-type II collagen antibody levels were also performed (groups 1-3, 6 and 8 only). […] At necropsy, animals from all groups were bled via cardiac puncture for serum and terminated via cervical dislocation. […] Whole blood was allowed to clot at room temperature for approximately 2 hours before being spun at 13,000 rpm for 8 minutes. • 10. […] Histopathologic Scoring Methods for Mouse Joints with Type II Collagen Arthritis Serum analysis for anti-TTC levels was performed on mice from groups 1-3, 6, and 8 only.
Assay [2] deals with semi-established type II collagen arthritis. Put plainly: Histopathology of fore paws, hind paws and knees in mouse type II collagen arthritis. As to conditions: vs vehicle controls; for Paw histopathology, reduction of summed scores: 4 paws; for Six-joint mean histopathology, reduction of summed scores: four paws and two knees. As to the method:
Mice were terminated on day 34. […] Evaluation of serum anti-type II collagen antibody levels were also performed (groups 1-3, 6 and 8 only). All animals survived to study termination. • 8. On days 21-35, onset of arthritis occurred. Mice were weighed on arthritis days 18, 20, 22, 24, 26, 28, 30, 32, and prior to tissue collection on day 34 (final day). • 9. At necropsy, animals from all groups were bled via cardiac puncture for serum and terminated via cervical dislocation. Fore paws, hind paws and knees were removed and placed in 10% NBF. Whole blood was allowed to clot at room temperature for approximately 2 hours before being spun at 13,000 rpm for 8 minutes. • 10. Processing of Joints: Following 1-2 days in fixative and then 4-5 days in decalcifier, the joints were processed, embedded, sectioned and stained with toluidine blue and H&E (2 slides per animal). Only fore and hind paws and knees were processed initially (6 joints/mouse). • 11. Morphologic Pathology Methods: […] Hind paws, fore paws, and knees were embedded and sectioned in the frontal plane. Six joints from each animal were processed for histopathology elevation. • 12. Tissue Processing and Evaluation: • a. place joints in decalcifier, • b. trim joints, wash, process tissues, • c. embed joints, • d. section tissues, stain tissues, • e. histopathologic evaluation, and • f. data processing, QC, prepare graphs and report. Histopathologic Scoring Methods for Mouse Joints with Type II Collagen Arthritis When scoring paws or ankles from mice with lesions of type II collagen arthritis, severity of changes as well as number of individual joints affected must be considered. When only 1-3 joints of the paws or ankles out of a possibility of numerous metacarpal/metatarsal/digit or tarsal/tibiotarsal joints were affected, an arbitrary assignment of a maximum score of 1, 2 or 3 for parameters below (Tables 3-6) was given depending on severity of changes. If more than 3 joints were involved, the criteria below (Tables 3-6) were applied to the most severely affected/majority of joints. [table] [table] [table] [table] For each animal, the inflammation, pannus, cartilage damage and bone damage scores was determined for each of the 6 joints submitted. A sum total (all 6 joints) animal score and a six joint mean animal score was determined as well as sums and means for each of the individual parameters. Data were also expressed as means for paws (4 joints) or knees (2 joints). Parameters for the various groups are then compared to disease control animals. Clinical data for paw scores (means for animal) were analyzed by determining the area under the dosing curve (AUC) for study days 18-34. For calculation of AUC, the daily mean scores for each mouse were entered into Microsoft Excel and the area between the treatment days after the onset of disease to the final day was computed. Means for each group were determined and the percent inhibition from arthritis controls was calculated by comparing values for treated and normal animals.

For assay [3] the test system is unchanged. Put plainly: 35 day mouse semi-established type II collagen arthritis: body weight, disease incidence, clinical arthritis scores and AUC. As to conditions: for Reduction of clinical arthritis scores expressed as area under the curve (AUC): days 18-34; for Reduction of clinical arthritis scores expressed as area under the curve (AUC) / Daily clinical arthritis scores: vs vehicle controls. As to the method:
Mouse type II collagen arthritis is an art-recognized animal model for rheumatoid arthritis in humans (Bendele, 2001). […] Mice were terminated on day 34. […] Evaluation of serum anti-type II collagen antibody levels were also performed (groups 1-3, 6 and 8 only). All animals survived to study termination. • 1. […] Mice were anesthetized with Isoflurane and given 150 μl of Bovine Type II collagen in Freund's complete adjuvant injections (Sigma) containing bovine type II collagen (Elastin Products, Owensville, Mo.) (2 mg/ml) at the base of the tail (D0 and day 21). • 3. Mice were randomized by body weight into treatment groups on study day 18. • 4. MTX was provided by Bolder BioPATH, Inc. as a 1 mg/ml stock solution purchased from MWI and was prepared as a 0.05 mg/ml solution in 1% CMC for dosing at 10 ml/kg. • 5. All dose solutions were prepared to deliver at 10 ml/kg (0.3 ml/30 g) mouse. • 6. Treatment is initiated on study day 18 and continued once daily, every day (po, qd) according to Table 1. [table] • 7. During the period of treatment, clinical scores were given for each of the paws (right front, left front, right rear, left rear) according to Table 2. [table] • 8. On days 21-35, onset of arthritis occurred. Mice were weighed on arthritis days 18, 20, 22, 24, 26, 28, 30, 32, and prior to tissue collection on day 34 (final day). • 9. At necropsy, animals from all groups were bled via cardiac puncture for serum and terminated via cervical dislocation. Fore paws, hind paws and knees were removed and placed in 10% NBF. Whole blood was allowed to clot at room temperature for approximately 2 hours before being spun at 13,000 rpm for 8 minutes. • 10. Processing of Joints: Following 1-2 days in fixative and then 4-5 days in decalcifier, the joints were processed, embedded, sectioned and stained with toluidine blue and H&E (2 slides per animal). Only fore and hind paws and knees were processed initially (6 joints/mouse). • 11. Morphologic Pathology Methods: […] Hind paws, fore paws, and knees were embedded and sectioned in the frontal plane. Six joints from each animal were processed for histopathology elevation. • 12. Tissue Processing and Evaluation: • a. place joints in decalcifier, • b. trim joints, wash, process tissues, • c. embed joints, • d. section tissues, stain tissues, • e. histopathologic evaluation, and • f. data processing, QC, prepare graphs and report. Histopathologic Scoring Methods for Mouse Joints with Type II Collagen Arthritis Clinical data for paw scores (means for animal) were analyzed by determining the area under the dosing curve (AUC) for study days 18-34. For calculation of AUC, the daily mean scores for each mouse were entered into Microsoft Excel and the area between the treatment days after the onset of disease to the final day was computed. Means for each group were determined and the percent inhibition from arthritis controls was calculated by comparing values for treated and normal animals. […] Percent inhibition of clinical parameters and AUC is calculated using the following formula: % Inhibition=[…], where A=Mean Disease Control−Mean Normal • B=Mean Treated−Mean Normal Results

For the compound `CCN(C(=O)c1c(O)c2c(Cl)cccc2n(C)c1=O)c1ccccc1` [Laquinimod], the “Serum Anti-TTC level” value in assay [1] (5 mg/kg Laquinimod po QD) was “not significantly affected”. The “Paw histopathology, reduction of summed scores” value in assay [2] (1 mg/kg Laquinimod po QD) stood at 61%. Moreover, in assay [2] (1 mg/kg Laquinimod po QD), the “Six-joint mean histopathology, reduction of summed scores” value worked out at 60%. Further, in assay [2] (1 mg/kg Laquinimod po QD), the “Reduction of knee cartilage damage” value is reported as 62%. Further, in assay [2] (1 mg/kg Laquinimod po QD), the “Reduction of knee inflammation” value was determined as 51%. In addition, the “Reduction of knee pannus” value in assay [2] (1 mg/kg Laquinimod po QD) is reported as 59%. The “Reduction of summed knee scores” value in assay [2] (1 mg/kg Laquinimod po QD) came to 57%. For the same compound, the Disease incidence is given as 100% in assay [3] (0.2 mg/kg Laquinimod po QD, by study day 28); 90% in assay [3] (1 mg/kg Laquinimod po QD, at study termination); 70% in assay [3] (5 mg/kg Laquinimod po QD). Also, the “Daily clinical arthritis scores prior to disease occurrence in the vehicle control group” value in assay [3] (0.2 mg/kg Laquinimod po QD, d23) was “significantly elevated”; in assay [3] (1 mg/kg Laquinimod po QD, d22-24), “significantly elevated”; in assay [3] (5 mg/kg Laquinimod po QD, d22-23), “significantly elevated”. For the same compound, the “Reduction of clinical arthritis scores expressed as area under the curve (AUC)” value in assay [3] (0.2 mg/kg Laquinimod po QD) worked out at 32%; in assay [3] (1 mg/kg Laquinimod po QD), 52%; in assay [3] (5 mg/kg Laquinimod po QD) it was 69%. Moreover, the “Daily clinical arthritis scores” value is on record as “significantly reduced” in assay [3] (0.2 mg/kg Laquinimod po QD, significant d28-34); “significantly reduced” in assay [3] (1 mg/kg Laquinimod po QD, significant d25-34); “significantly reduced” in assay [3] (5 mg/kg Laquinimod po QD, significant d24-34).
Turning to `CN(Cc1cnc2nc(N)nc(N)c2n1)c1ccc(C(=O)N[C@@H](CCC(=O)O)C(=O)O)cc1` [MTX, Methotrexate], the “Serum Anti-TTC level” value in assay [1] (MTX 0.5 mg/kg po QD) was “not significantly affected”. In addition, in assay [2] (MTX 0.5 mg/kg po QD), the “Paw histopathology, reduction of summed scores” value turned out to be 46% and the “Six-joint mean histopathology, reduction of summed scores” value is 43%. Moreover, in assay [3] (MTX 0.5 mg/kg po QD, at study termination), the Disease incidence amounted to 90%. Further, the “Reduction of clinical arthritis scores expressed as area under the curve (AUC)” value in assay [3] (MTX 0.5 mg/kg po QD) worked out at 50%. Further, in assay [3] (MTX 0.5 mg/kg po QD, significant days 27-34), the “Daily clinical arthritis scores” value is “significantly reduced”.
